# Source: paper PMC7827406, “Structure–Activity Relationship (SAR) Study of Spautin-1 to Entail the Discovery of Novel NEK4 Inhibitors” (International Journal of Molecular Sciences, 2021)
# Where two headings read alike, the source gives them in different places.
# Assays:
# Assay in all cases: biochemical
# Set-up in all cases: Eurofins KinaseProfiler full panel at Km ATP, residual kinase activity (%) relative to DMSO
# [1] = molecular target: T1, Aurora-A(h) (Homo sapiens, UniProt O14965)
# T1 construct: gene AURKA
# T1 sequence (O14965 1-403): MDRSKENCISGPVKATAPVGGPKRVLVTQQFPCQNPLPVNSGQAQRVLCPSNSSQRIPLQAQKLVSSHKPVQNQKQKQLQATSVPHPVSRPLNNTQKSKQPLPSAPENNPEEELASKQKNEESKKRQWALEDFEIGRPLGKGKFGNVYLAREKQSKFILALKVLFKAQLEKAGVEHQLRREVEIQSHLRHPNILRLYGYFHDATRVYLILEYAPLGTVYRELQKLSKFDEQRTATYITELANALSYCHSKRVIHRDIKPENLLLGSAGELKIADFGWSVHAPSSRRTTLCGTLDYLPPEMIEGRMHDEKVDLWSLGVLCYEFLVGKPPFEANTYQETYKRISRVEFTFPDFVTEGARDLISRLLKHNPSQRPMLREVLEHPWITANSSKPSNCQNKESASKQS
# Method in brief: (§1)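 Compounds screened at 10 µM in radiometric kinase activity assays at Km ATP, reported as remaining kinase activity (%). A KINOMEscan competition-binding screen at 10 µM measured DNA-tagged kinase retained on immobilized active-site ligand by qPCR.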
# [2] = molecular target: AAK1(h) (Homo sapiens, UniProt Q2M2I8)
# Method in brief: as §1
# [3] = molecular target: T2, Abl(m) (Mus musculus, UniProt P00520)
# T2 construct: gene Abl1
# Method in brief: as §1
# [4] = molecular target: CSK(h) (Homo sapiens, UniProt P41240)
# Method in brief: as §1
# [5] = molecular target: T3, ICK(h) (Homo sapiens, UniProt Q9UPZ9)
# T3 construct: gene CILK1
# T3 sequence (Q9UPZ9 1-632): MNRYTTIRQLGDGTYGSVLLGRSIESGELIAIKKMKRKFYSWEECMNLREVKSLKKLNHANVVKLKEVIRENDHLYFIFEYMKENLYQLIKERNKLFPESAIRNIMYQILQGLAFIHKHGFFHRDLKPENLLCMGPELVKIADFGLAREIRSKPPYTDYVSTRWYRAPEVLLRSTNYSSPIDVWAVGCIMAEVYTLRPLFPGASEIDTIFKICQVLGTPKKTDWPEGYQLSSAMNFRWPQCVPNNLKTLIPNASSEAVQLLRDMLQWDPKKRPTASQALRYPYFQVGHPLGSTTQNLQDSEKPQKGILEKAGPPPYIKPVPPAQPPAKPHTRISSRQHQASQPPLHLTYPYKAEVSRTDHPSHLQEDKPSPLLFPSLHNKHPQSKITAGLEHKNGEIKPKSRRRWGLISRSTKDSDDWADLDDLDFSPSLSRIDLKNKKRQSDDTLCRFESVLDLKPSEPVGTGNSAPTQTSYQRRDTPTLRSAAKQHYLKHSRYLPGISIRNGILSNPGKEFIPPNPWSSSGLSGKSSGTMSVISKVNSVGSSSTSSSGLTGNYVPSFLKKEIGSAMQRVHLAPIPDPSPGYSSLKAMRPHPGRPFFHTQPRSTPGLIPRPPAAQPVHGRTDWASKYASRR
# Method in brief: as §1
# [6] = molecular target: Lck(h) (Homo sapiens, UniProt P06239)
# Method in brief: as §1
# [7] = molecular target: T4, PRAK(h) (Homo sapiens, UniProt Q8IW41)
# T4 construct: gene MAPKAPK5
# T4 sequence (Q8IW41 1-473): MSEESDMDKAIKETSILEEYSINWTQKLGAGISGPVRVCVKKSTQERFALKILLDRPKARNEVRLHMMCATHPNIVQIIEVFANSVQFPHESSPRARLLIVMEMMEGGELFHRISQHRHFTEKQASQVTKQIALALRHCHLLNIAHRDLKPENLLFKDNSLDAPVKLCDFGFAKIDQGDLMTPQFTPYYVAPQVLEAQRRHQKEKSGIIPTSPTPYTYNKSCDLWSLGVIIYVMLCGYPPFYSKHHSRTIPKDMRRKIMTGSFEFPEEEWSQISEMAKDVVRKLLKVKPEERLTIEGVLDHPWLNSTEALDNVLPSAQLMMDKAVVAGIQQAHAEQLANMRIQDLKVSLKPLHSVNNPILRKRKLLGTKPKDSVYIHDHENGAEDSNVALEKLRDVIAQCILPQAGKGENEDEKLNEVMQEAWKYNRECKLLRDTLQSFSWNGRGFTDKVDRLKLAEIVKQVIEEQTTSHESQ
# Method in brief: as §1
# [8] = molecular target: Ret(V804M)(h) (Homo sapiens, UniProt P07949, V804M)
# Method in brief: as §1
# [9] = molecular target: T5, PKBβ(h) (Homo sapiens, UniProt P31751)
# T5 construct: gene AKT2
# Method in brief: as §1
# [10] = molecular target: T6, MLK4(h) (Homo sapiens, UniProt Q5TCX8)
# T6 construct: gene MAP3K21
# Method in brief: as §1
# [11] = read-out: Residual activity (%) Spautin-1 5aa
# [12] = read-out: Residual activity (%) 5as
# [13] = read-out: Residual activity (%) 5at
# [14] = read-out: Residual activity (%) 5ay
# Lck(h), sequence (P06239 whole entry): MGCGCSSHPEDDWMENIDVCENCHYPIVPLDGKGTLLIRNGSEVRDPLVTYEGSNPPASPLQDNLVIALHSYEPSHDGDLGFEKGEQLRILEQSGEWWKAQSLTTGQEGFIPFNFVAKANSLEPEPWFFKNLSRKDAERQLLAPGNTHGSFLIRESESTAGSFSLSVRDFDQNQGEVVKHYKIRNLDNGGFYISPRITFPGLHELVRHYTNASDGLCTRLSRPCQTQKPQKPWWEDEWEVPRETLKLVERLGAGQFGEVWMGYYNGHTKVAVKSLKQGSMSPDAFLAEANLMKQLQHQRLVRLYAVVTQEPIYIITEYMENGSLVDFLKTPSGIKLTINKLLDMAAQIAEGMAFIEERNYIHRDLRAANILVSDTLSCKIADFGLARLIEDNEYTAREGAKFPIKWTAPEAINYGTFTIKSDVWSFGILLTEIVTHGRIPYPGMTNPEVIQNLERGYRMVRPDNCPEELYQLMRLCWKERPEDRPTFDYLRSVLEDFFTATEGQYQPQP
# AAK1(h), sequence (Q2M2I8 whole entry): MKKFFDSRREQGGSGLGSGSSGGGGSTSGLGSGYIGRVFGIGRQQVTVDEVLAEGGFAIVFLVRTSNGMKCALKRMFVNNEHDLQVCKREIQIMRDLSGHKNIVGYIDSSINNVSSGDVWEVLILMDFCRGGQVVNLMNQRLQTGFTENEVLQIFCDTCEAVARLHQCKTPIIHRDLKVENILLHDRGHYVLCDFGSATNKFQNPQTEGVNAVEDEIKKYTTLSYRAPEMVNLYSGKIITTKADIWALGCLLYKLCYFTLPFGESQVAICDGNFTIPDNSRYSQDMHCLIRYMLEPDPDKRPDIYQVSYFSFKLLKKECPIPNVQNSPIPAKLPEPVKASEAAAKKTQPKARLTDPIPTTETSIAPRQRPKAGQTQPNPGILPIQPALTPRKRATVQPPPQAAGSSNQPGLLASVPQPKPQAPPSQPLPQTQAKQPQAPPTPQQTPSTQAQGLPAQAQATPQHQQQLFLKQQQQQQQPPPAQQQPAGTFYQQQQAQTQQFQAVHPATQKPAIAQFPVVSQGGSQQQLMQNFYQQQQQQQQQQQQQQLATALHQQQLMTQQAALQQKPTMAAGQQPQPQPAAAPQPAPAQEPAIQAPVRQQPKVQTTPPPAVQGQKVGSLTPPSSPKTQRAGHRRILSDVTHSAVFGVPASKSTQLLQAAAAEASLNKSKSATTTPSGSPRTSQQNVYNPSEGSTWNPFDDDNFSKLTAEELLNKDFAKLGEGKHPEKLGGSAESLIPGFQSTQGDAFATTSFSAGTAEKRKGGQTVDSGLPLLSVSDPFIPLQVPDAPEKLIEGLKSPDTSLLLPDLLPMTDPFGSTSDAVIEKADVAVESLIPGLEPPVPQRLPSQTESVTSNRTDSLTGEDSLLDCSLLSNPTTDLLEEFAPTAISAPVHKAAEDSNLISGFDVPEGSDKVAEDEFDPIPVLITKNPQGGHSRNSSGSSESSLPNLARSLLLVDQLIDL
# T6 sequence (Q5TCX8 whole entry): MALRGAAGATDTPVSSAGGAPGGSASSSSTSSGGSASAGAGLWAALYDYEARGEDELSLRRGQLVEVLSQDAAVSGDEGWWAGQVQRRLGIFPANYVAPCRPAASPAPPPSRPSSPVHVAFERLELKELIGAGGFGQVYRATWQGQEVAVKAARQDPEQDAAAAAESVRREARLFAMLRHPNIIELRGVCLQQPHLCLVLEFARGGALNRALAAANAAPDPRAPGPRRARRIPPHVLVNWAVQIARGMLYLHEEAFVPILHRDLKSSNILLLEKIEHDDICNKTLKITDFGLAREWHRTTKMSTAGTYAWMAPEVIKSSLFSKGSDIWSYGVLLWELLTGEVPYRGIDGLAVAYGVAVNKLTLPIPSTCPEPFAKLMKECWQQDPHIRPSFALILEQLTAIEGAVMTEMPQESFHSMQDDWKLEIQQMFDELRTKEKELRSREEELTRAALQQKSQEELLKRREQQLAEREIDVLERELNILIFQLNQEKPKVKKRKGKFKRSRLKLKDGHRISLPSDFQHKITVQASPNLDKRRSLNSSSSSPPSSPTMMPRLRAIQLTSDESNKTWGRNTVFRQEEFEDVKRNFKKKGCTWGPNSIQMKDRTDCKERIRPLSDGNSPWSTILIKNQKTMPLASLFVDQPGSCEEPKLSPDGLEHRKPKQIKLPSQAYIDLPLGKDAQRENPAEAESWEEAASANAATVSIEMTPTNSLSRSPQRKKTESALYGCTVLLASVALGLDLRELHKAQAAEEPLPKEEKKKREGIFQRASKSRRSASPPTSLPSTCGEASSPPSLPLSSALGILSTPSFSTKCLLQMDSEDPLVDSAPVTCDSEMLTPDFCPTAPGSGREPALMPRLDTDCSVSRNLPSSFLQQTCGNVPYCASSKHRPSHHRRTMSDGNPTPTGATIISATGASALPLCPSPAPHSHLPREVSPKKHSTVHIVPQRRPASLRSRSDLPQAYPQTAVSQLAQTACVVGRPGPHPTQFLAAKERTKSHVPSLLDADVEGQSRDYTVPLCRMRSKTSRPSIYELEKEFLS
# Ret(V804M)(h), sequence (P07949 whole entry V804M): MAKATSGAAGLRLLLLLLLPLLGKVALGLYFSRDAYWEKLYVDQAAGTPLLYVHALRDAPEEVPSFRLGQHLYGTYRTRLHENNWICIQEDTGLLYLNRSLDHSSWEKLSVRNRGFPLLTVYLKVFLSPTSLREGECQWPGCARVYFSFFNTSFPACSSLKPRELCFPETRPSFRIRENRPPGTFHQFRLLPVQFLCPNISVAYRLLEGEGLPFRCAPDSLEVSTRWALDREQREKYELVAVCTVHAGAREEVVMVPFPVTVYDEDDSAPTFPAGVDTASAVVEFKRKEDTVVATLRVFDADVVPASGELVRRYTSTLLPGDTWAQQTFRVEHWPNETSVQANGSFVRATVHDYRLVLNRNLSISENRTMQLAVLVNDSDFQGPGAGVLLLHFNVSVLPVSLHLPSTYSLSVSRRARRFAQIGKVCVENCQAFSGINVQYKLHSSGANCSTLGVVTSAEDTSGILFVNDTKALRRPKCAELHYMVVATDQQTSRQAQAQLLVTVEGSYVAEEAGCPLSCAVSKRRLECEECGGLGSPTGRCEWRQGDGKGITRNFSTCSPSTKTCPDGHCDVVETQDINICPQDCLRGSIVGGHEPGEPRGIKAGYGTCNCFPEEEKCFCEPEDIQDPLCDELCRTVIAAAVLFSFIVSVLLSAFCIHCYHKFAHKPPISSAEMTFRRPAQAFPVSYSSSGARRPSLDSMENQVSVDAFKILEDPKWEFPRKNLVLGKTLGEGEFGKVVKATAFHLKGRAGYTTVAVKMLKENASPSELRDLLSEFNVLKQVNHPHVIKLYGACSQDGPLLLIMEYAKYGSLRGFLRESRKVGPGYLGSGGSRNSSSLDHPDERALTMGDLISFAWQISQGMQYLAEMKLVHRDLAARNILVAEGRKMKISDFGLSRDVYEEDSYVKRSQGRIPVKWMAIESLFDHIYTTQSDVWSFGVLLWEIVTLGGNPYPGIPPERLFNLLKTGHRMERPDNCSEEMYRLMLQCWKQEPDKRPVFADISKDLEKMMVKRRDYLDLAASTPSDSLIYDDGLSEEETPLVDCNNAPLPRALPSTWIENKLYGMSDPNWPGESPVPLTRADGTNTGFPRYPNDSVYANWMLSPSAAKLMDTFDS
# CSK(h), sequence (P41240 whole entry): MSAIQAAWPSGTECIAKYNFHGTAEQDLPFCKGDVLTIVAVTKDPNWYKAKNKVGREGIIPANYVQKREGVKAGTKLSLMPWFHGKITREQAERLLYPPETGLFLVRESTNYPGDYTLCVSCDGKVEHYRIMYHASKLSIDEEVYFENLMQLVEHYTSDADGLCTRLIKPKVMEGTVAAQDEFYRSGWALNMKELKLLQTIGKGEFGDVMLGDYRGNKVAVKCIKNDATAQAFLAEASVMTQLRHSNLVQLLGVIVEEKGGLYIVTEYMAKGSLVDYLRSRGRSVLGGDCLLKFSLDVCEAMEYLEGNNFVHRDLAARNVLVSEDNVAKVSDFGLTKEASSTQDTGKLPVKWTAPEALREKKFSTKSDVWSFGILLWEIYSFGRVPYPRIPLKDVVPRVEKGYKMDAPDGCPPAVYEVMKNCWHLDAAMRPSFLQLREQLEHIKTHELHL
# T5 sequence (P31751 whole entry): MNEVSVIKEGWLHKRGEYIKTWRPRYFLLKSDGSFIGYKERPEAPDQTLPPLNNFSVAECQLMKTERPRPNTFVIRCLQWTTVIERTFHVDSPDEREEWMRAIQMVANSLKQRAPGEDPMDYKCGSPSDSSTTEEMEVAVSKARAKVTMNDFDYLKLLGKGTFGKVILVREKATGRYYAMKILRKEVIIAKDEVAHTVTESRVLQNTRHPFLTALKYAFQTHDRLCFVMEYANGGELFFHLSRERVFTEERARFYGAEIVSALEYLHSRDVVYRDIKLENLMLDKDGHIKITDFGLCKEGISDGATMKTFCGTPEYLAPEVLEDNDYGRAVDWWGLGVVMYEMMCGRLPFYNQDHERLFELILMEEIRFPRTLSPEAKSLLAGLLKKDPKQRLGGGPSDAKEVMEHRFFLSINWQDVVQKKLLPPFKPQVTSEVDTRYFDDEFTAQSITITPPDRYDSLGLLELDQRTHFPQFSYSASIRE
structure (smiles),measurement,setting,value
"Fc1ccc(CNc2ncnc3ccc(F)cc23)cc1 [5aa, 6-Fluoro-N-(4-fluorobenzyl)-4-Quinazolinamine]",remaining activity at 10 µM,[1]; [11],81%
same,remaining activity at 10 µM,[2]; [11],95%
same,remaining activity at 10 µM,[3]; [11],90%
same,remaining activity at 10 µM,[4]; [11],82%
same,remaining activity at 10 µM,[5]; [11],97%
same,remaining activity at 10 µM,[6]; [11],90%
same,remaining activity at 10 µM,[7]; [11],107%
same,remaining activity at 10 µM,[8]; [11],99%
same,remaining activity at 10 µM,[9]; [11],106%
same,remaining activity at 10 µM,[10]; [11],105%
"Fc1ccc(CCNc2ncnc3ccc(F)cc23)cc1 [5as, 6-Fluoro-N-[2-(4-Fluorophenyl)Ethyl]-4-Quinazolinamine]",remaining activity at 10 µM,[1]; [12],87%
same,remaining activity at 10 µM,[2]; [12],81%
same,remaining activity at 10 µM,[3]; [12],83%
same,remaining activity at 10 µM,[4]; [12],85%
same,remaining activity at 10 µM,[5]; [12],90%
same,remaining activity at 10 µM,[6]; [12],94%
same,remaining activity at 10 µM,[7]; [12],108%
same,remaining activity at 10 µM,[8]; [12],85%
same,remaining activity at 10 µM,[9]; [12],84%
same,remaining activity at 10 µM,[10]; [12],93%
"Fc1ccc2ncnc(NCCc3ccc(Cl)cc3)c2c1 [5at, N-[2-(4-Chlorophenyl)Ethyl]-6-Fluoro-4-Quinazolinamine]",remaining activity at 10 µM,[1]; [13],70%
same,remaining activity at 10 µM,[2]; [13],72%
same,remaining activity at 10 µM,[3]; [13],99%
same,remaining activity at 10 µM,[4]; [13],79%
same,remaining activity at 10 µM,[5]; [13],88%
same,remaining activity at 10 µM,[6]; [13],82%
same,remaining activity at 10 µM,[7]; [13],91%
same,remaining activity at 10 µM,[8]; [13],73%
same,remaining activity at 10 µM,[9]; [13],75%
same,remaining activity at 10 µM,[10]; [13],94%
"COc1ccc2ncnc(Nc3cccc(F)c3)c2c1 [5ay, N-(3-Fluorophenyl)-6-Methoxy-4-Quinazolinamine]",remaining activity at 10 µM,[1]; [14],79%
same,remaining activity at 10 µM,[2]; [14],53%
same,remaining activity at 10 µM,[3]; [14],56%
same,remaining activity at 10 µM,[4]; [14],91%
same,remaining activity at 10 µM,[5]; [14],92%
same,remaining activity at 10 µM,[6]; [14],78%
same,remaining activity at 10 µM,[7]; [14],102%
same,remaining activity at 10 µM,[8]; [14],102%
same,remaining activity at 10 µM,[9]; [14],106%
same,remaining activity at 10 µM,[10]; [14],91%
